Measurements taken from patent US4409210A, “Antibiotic compound” (priority 1982, dated 1983).
Like-named read-outs stand apart in the source and are kept apart here. *1 amine or outer side, *2 acyl side, *3 side chain or, on linkers, in order; H or OH if unused. Where a SMILES comes first, the peptide text is derived from it. Bridges are numbered along the chain shown (N, C = ends). [ ]: non-standard residue; d: D form. ξ: configuration not given here. X2 = CCCCCCCCCCCC(CC(=O)[*:1])O[*:2]; ξAsp(3ξ-OH) = NC(C(=O)O)C(O)C(=O)O; X1 = O=C(C1C(O)CCN1[*:1])[*:2]

Legend:
Blood levels in mice = type: in vivo
Description: Blood levels in mice were determined following an intravenous or intramuscular administration of Bu-2517. Blood samples were collected from orbital sinuses and assayed by the paper disc-agar diffusion method using S. lutea PCI 1001 as the test organism. […] Bu-2517 was not absorbed when administered orally. T1 TABLE 7-Blood Levels in Mice? -Blood levels (mcg/ml)? -intravenous dose? intramuscular dose? -Time after? 10? 30? 10? 30? 100? -administration? mg/kg? mg/kg? mg/kg? mg/kg? mg/kg? -1 min 70 224 ? --? --? --? -5 41 162 ? --? --? --? -10 33 131 ? 11 22 --? -15 --? --? --? --? 45 -20 23 68 13 32 --? -30 18 73 14 48 45 -45 18 64 14 41 --? -1 hr 14 50 13 36 47 -1.5 7.9 32 11 35 --? -2 5.6 23 8.9 28 --? -3 3.1 14 5.3 18 55 -5 --? --? <2.0 ? 8.9 --? -7 --? --? --? 3.8 23 -10 --? --? --? --? 15 -24 --? --? --? --? <0.3 -Half life (hr.) 0.81 0.87 1.6 1.8 3.7 -AUC* (mcg.hr/ml) 39 163 ? 40 137 ? 460 ? -

streptococci = test: MIC summary, streptococci; type: cell-based; conditions: against streptococci
S pneumoniae A20759 = type: in vivo, mice; conditions: Exp. Run No. C-1176, observed 5 days
[1] = tested on: gram-positive rods and cocci (Clostridium, Peptostreptococcus, Propionibacterium acnes); type: cell-based; conditions: various species of Clostridium and Peptostreptococcus and strains of Propionibacterium acnes
[2] = tested on: Anaerobic gram-negative rod bacteria, such as Bacteroides and Fusobacterium species; test: MIC summary, anaerobic gram-negative rods; type: cell-based
[3] = tested on: aerobic and anaerobic gram-positive pathogens; design: species or system mice; conditions: mouse
[4] = type: in vivo, mice; conditions: acute toxicity
Description: The acute toxicity of Bu-2517 was determined by intravenous and intramuscular routes. No death occurred up to a dose of 400 mg/kg (iv) or 1600 mg/kg (im).

[5] = tested on: aerobic gram-negative organisms; type: cell-based
Veillonella species = test: MIC summary, Veillonella; type: cell-based; conditions: gram-negative cocci
anaerobic bacteria = test: MIC summary, anaerobic bacteria; type: cell-based

CCCCCCCCCCCC1CC(=O)N2CCCC2C(=O)NC(CO)C(=O)N2CCCC2C(=O)NC(CCCNC(=N)N)C(=O)NC(C(O)C(=O)O)C(=O)NC(CO)C(=O)N2CCC(O)C2C(=O)NC(C(O)C(=O)O)C(=O)O1 (stereo not drawn) [Bu-2517] (PSPR[ξAsp(3ξ-OH)]S[X1][ξAsp(3ξ-OH)]; linker N-C via X2; configuration not given here)
blood level after 7 hours (Blood levels in mice; intramuscular administration of 30 mg/kg): measurable blood level was still observed
AUC* (mcg.hr/ml), area under curve (Blood levels in mice; intramuscular dose 10 mg/kg): 40 µg·h/mL
Half life (Blood levels in mice; intramuscular dose 10 mg/kg): 1.6 h
Blood levels (Blood levels in mice; intramuscular dose 10 mg/kg, 10 min): 11 µg/mL
Blood levels (Blood levels in mice; intramuscular dose 10 mg/kg, 20 min): 13 µg/mL
Blood levels (Blood levels in mice; intramuscular dose 10 mg/kg, 30 min): 14 µg/mL
Blood levels (Blood levels in mice; intramuscular dose 10 mg/kg, 45 min): 14 µg/mL
Blood levels (Blood levels in mice; intramuscular dose 10 mg/kg, 1 hr): 13 µg/mL
Blood levels (Blood levels in mice; intramuscular dose 10 mg/kg, 1.5 hr): 11 µg/mL
Blood levels (Blood levels in mice; intramuscular dose 10 mg/kg, 2 hr): 8.9 µg/mL
Blood levels (Blood levels in mice; intramuscular dose 10 mg/kg, 3 hr): 5.3 µg/mL
Blood levels (Blood levels in mice; intramuscular dose 10 mg/kg, 5 hr): < 2.0 µg/mL
AUC* (mcg.hr/ml), area under curve (Blood levels in mice; intramuscular dose 30 mg/kg): 137 µg·h/mL
Half life (Blood levels in mice; intramuscular dose 30 mg/kg): 1.8 h
Blood levels (Blood levels in mice; intramuscular dose 30 mg/kg, 10 min): 22 µg/mL
Blood levels (Blood levels in mice; intramuscular dose 30 mg/kg, 20 min): 32 µg/mL
Blood levels (Blood levels in mice; intramuscular dose 30 mg/kg, 30 min): 48 µg/mL
Blood levels (Blood levels in mice; intramuscular dose 30 mg/kg, 45 min): 41 µg/mL
Blood levels (Blood levels in mice; intramuscular dose 30 mg/kg, 1 hr): 36 µg/mL
Blood levels (Blood levels in mice; intramuscular dose 30 mg/kg, 1.5 hr): 35 µg/mL
Blood levels (Blood levels in mice; intramuscular dose 30 mg/kg, 2 hr): 28 µg/mL
Blood levels (Blood levels in mice; intramuscular dose 30 mg/kg, 3 hr): 18 µg/mL
Blood levels (Blood levels in mice; intramuscular dose 30 mg/kg, 5 hr): 8.9 µg/mL
Blood levels (Blood levels in mice; intramuscular dose 30 mg/kg, 7 hr): 3.8 µg/mL
AUC* (mcg.hr/ml), area under curve (Blood levels in mice; intramuscular dose 100 mg/kg): 460 µg·h/mL
Half life (Blood levels in mice; intramuscular dose 100 mg/kg): 3.7 h
Blood levels (Blood levels in mice; intramuscular dose 100 mg/kg, 15 min): 45 µg/mL
Blood levels (Blood levels in mice; intramuscular dose 100 mg/kg, 30 min): 45 µg/mL
Blood levels (Blood levels in mice; intramuscular dose 100 mg/kg, 1 hr): 47 µg/mL
Blood levels (Blood levels in mice; intramuscular dose 100 mg/kg, 3 hr): 55 µg/mL
Blood levels (Blood levels in mice; intramuscular dose 100 mg/kg, 7 hr): 23 µg/mL
Blood levels (Blood levels in mice; intramuscular dose 100 mg/kg, 10 hr): 15 µg/mL
Blood levels (Blood levels in mice; intramuscular dose 100 mg/kg, 24 hr): < 0.3 µg/mL
AUC* (mcg.hr/ml), area under curve (Blood levels in mice; intravenous dose 10 mg/kg): 39 µg·h/mL
Half life (Blood levels in mice; intravenous dose 10 mg/kg): 0.81 h
Blood levels (Blood levels in mice; intravenous dose 10 mg/kg, 1 min after administration): 70 µg/mL
Blood levels (Blood levels in mice; intravenous dose 10 mg/kg, 5 min): 41 µg/mL
Blood levels (Blood levels in mice; intravenous dose 10 mg/kg, 10 min): 33 µg/mL
Blood levels (Blood levels in mice; intravenous dose 10 mg/kg, 20 min): 23 µg/mL
Blood levels (Blood levels in mice; intravenous dose 10 mg/kg, 30 min): 18 µg/mL
Blood levels (Blood levels in mice; intravenous dose 10 mg/kg, 45 min): 18 µg/mL
Blood levels (Blood levels in mice; intravenous dose 10 mg/kg, 1 hr): 14 µg/mL
Blood levels (Blood levels in mice; intravenous dose 10 mg/kg, 1.5 hr): 7.9 µg/mL
Blood levels (Blood levels in mice; intravenous dose 10 mg/kg, 2 hr): 5.6 µg/mL
Blood levels (Blood levels in mice; intravenous dose 10 mg/kg, 3 hr): 3.1 µg/mL
AUC* (mcg.hr/ml), area under curve (Blood levels in mice; intravenous dose 30 mg/kg): 163 µg·h/mL
Half life (Blood levels in mice; intravenous dose 30 mg/kg): 0.87 h
Blood levels (Blood levels in mice; intravenous dose 30 mg/kg, 1 min after administration): 224 µg/mL
Blood levels (Blood levels in mice; intravenous dose 30 mg/kg, 5 min): 162 µg/mL
Blood levels (Blood levels in mice; intravenous dose 30 mg/kg, 10 min): 131 µg/mL
Blood levels (Blood levels in mice; intravenous dose 30 mg/kg, 20 min): 68 µg/mL
Blood levels (Blood levels in mice; intravenous dose 30 mg/kg, 30 min): 73 µg/mL
Blood levels (Blood levels in mice; intravenous dose 30 mg/kg, 45 min): 64 µg/mL
Blood levels (Blood levels in mice; intravenous dose 30 mg/kg, 1 hr): 50 µg/mL
Blood levels (Blood levels in mice; intravenous dose 30 mg/kg, 1.5 hr): 32 µg/mL
Blood levels (Blood levels in mice; intravenous dose 30 mg/kg, 2 hr): 23 µg/mL
Blood levels (Blood levels in mice; intravenous dose 30 mg/kg, 3 hr): 14 µg/mL
absorption, parenterally (Blood levels in mice; intravenous or intramuscular administration): well absorbed
absorption when administered orally (Blood levels in mice; oral): not absorbed
fold more active than amphomycin (streptococci): 8-32 fold
PD50 (mg/kg, im) (S pneumoniae A20759): 1.9 mg/kg
inhibition of anaerobic gram-positive rods and cocci tested [1]: inhibited all
susceptibility of anaerobic gram-negative rod bacteria [2]: generally resistant
in vivo activity relative to the potency of amphomycin [3]: equal to up to three times
dose up to which no death occurred ([4]; im): 1600 mg/kg
intravenous dose at which mice died ([4]; intravenous): 800 mg/kg
dose up to which no death occurred ([4]; iv): 400 mg/kg
intravenous LD50 ([4]; mice, calculated): 560 mg/kg
activity against aerobic gram-negative organisms [5]: no activity
inhibition of two strains of Veillonella species (Veillonella species): inhibited at low concentration
pH range in which aqueous solution forms a precipitate: 2.4-4.2
antianaerobic activity, times more potent than amphomycin (anaerobic bacteria): 2-16 times
